Experimental data: the supplement of paper PMC13380429

How the values were obtained:
Conditions in all cases: 72 h
Calu-3 [1] = assay: drug sensitivity score (DSS) for viability; higher = more toxic; extreme values may be limits of the assay
Vero E6 [2] = assay: as above
U2OS [3] = assay: as above
HepG2 [4] = assay: as above
Caco-2 [5] = assay: as above
Calu-3 [6] = assay: cell viability relative to DMSO; higher = less toxic
Vero E6 [7] = assay: as above
U2OS [8] = assay: as above
HepG2 [9] = assay: as above
Caco-2 [10] = assay: as above
Calu-3 [11] = assay: relative viability EC50 (midpoint between 100% and the lowest measured viability); higher = less toxic
Vero E6 [12] = assay: as above
U2OS [13] = assay: as above
HepG2 [14] = assay: as above
Caco-2 [15] = assay: as above

SMILES | drug sensitivity score (Calu-3 [1]) | drug sensitivity score (Vero E6 [2]) | drug sensitivity score (U2OS [3]) | drug sensitivity score (HepG2 [4]) | drug sensitivity score (Caco-2 [5]) | cell viability (Calu-3 [6]; 1 nM) | cell viability (Calu-3 [6]; 10 nM) | cell viability (Calu-3 [6]; 100 nM) | cell viability (Calu-3 [6]; 1000 nM) | cell viability (Calu-3 [6]; 10000 nM) | cell viability (Vero E6 [7]; 1 nM) | cell viability (Vero E6 [7]; 10 nM) | cell viability (Vero E6 [7]; 100 nM) | cell viability (Vero E6 [7]; 1000 nM) | cell viability (Vero E6 [7]; 10000 nM) | cell viability (U2OS [8]; 1 nM) | cell viability (U2OS [8]; 10 nM) | cell viability (U2OS [8]; 100 nM) | cell viability (U2OS [8]; 1000 nM) | cell viability (U2OS [8]; 10000 nM) | cell viability (HepG2 [9]; 1 nM) | cell viability (HepG2 [9]; 10 nM) | cell viability (HepG2 [9]; 100 nM) | cell viability (HepG2 [9]; 1000 nM) | cell viability (HepG2 [9]; 10000 nM) | cell viability (Caco-2 [10]; 1 nM) | cell viability (Caco-2 [10]; 10 nM) | cell viability (Caco-2 [10]; 100 nM) | cell viability (Caco-2 [10]; 1000 nM) | cell viability (Caco-2 [10]; 10000 nM) | relative viability EC50 (Calu-3 [11]) | relative viability EC50 (Vero E6 [12]) | relative viability EC50 (U2OS [13]) | relative viability EC50 (HepG2 [14]) | relative viability EC50 (Caco-2 [15])
NCCc1c[nH]cn1 [histamine] | 0 | 0 | 0 | 0 | 0 | 99.4% | 100% | 101% | 95.7% | 109% | 99.4% | 98.2% | 93.5% | 97.5% | 104% | 94.9% | 99.7% | 97.5% | 103% | 102% | 100% | 102% | 103% | 100% | 97.5% | 90.8% | 105% | 101% | 110% | 104% | > 10 µM | > 10 µM | > 10 µM | > 10 µM | > 10 µM
C[C@]12CCC(=O)C=C1CC[C@@H]1[C@@H]2[C@@H](O)C[C@@]2(C)[C@H]1CC[C@]2(O)C(=O)COP(=O)(O)O [hydrocortisone-phosphate] | 0 | 0 | 0 | 0.1 | 0 | 98.3% | 102% | 98.5% | 99.8% | 93.8% | 106% | 100% | 106% | 100% | 104% | 101% | 101% | 97.1% | 100% | 95% | 99.2% | 99.8% | 105% | 89.5% | 94.3% | 100% | 101% | 103% | 110% | 94.1% | > 10 µM | > 10 µM | > 10 µM | > 10 µM | > 10 µM
NC(=O)NO [hydroxyurea] | 0 | 0 | 0 | 0 | 0.1 | 104% | 89.4% | 99% | 103% | 95.2% | 95.6% | 101% | 101% | 97.1% | 112% | 97.1% | 98.2% | 102% | 96% | 99.8% | 106% | 81.9% | 125% | 115% | 103% | 96.5% | 87% | 103% | 77.9% | 94.1% | > 10 µM | > 10 µM | > 10 µM | > 10 µM | > 10 µM
